Each compound was assayed on 843126-344-R-J1-PDC complex spheroid viability (assay: Anticancer human tumor 843126-344-R-J1-PDC patient-derived melanoma cell line growth inhibition [POLQ]). Conditions: curve of first compound; second compound 10 µM.
Summary of the method: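 Growth inhibition in 3D: complex spheroids (tumor PDC, HUVEC, MSC) treated with POLQ inhibitor combinations; where Cmax unknown, highest tested concentration 10 microM, except SN-38 at 1 microM.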
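Throughout, for viability, T/C: spheroids exposed to drugs for seven days before readout.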

Going from CC[C@@]1(O)C(=O)OCc2c1cc1n(c2=O)Cc2cc3c(CN(C)C)c(O)ccc3nc2-1 + Cc1cccc(N(C)C(=O)C2C(O)CCN2c2nc(C)cc(C(F)(F)F)c2C#N)c1 to CCc1c2c(nc3ccc(O)cc13)-c1cc3c(c(=O)n1C2)COC(=O)[C@]3(O)CC + Cc1cccc(N(C)C(=O)C2C(O)CCN2c2nc(C)cc(C(F)(F)F)c2C#N)c1, the IC50 rises from 97.2 nM to > 1000 nM. The first is the more potent here.

CNCc1ccc(-c2[nH]c3cc(F)cc4c3c2CCNC4=O)cc1 + Cc1cccc(N(C)C(=O)C2C(O)CCN2c2nc(C)cc(C(F)(F)F)c2C#N)c1 and Cn1ncnc1[C@H]1c2n[nH]c(=O)c3cc(F)cc(c23)N[C@@H]1c1ccc(F)cc1 + Cc1cccc(N(C)C(=O)C2C(O)CCN2c2nc(C)cc(C(F)(F)F)c2C#N)c1 cannot be ordered by IC50: > 10000 nM for the first, > 100 nM for the second.

O=C(c1cc(Cc2n[nH]c(=O)c3ccccc23)ccc1F)N1CCN(C(=O)C2CC2)CC1 + Cc1cccc(N(C)C(=O)C2C(O)CCN2c2nc(C)cc(C(F)(F)F)c2C#N)c1 was tested, and the IC50 was > 10000 nM.

Same assay, conditions: second compound 0.0316 µM; first compound 0.000316 µM; stronger effect = lower value

Compared with CC[C@@]1(O)C(=O)OCc2c1cc1n(c2=O)Cc2cc3c(CN(C)C)c(O)ccc3nc2-1 + Cc1cccc(N(C)C(=O)C2C(O)CCN2c2nc(C)cc(C(F)(F)F)c2C#N)c1, Cn1ncnc1[C@H]1c2n[nH]c(=O)c3cc(F)cc(c23)N[C@@H]1c1ccc(F)cc1 + Cc1cccc(N(C)C(=O)C2C(O)CCN2c2nc(C)cc(C(F)(F)F)c2C#N)c1 is lower in viability, T/C: 98% for the first, 83.1% for the second.

Same assay, conditions: second compound 0.0316 µM; first compound 0.001 µM; stronger effect = lower value

Compared with CC[C@@]1(O)C(=O)OCc2c1cc1n(c2=O)Cc2cc3c(CN(C)C)c(O)ccc3nc2-1 + Cc1cccc(N(C)C(=O)C2C(O)CCN2c2nc(C)cc(C(F)(F)F)c2C#N)c1, Cn1ncnc1[C@H]1c2n[nH]c(=O)c3cc(F)cc(c23)N[C@@H]1c1ccc(F)cc1 + Cc1cccc(N(C)C(=O)C2C(O)CCN2c2nc(C)cc(C(F)(F)F)c2C#N)c1 is lower in viability, T/C: 105% for the first, 80% for the second.

Same assay, conditions: second compound 0.0316 µM; first compound 0.00316 µM; stronger effect = lower value

Going from C=CCn1c(=O)c2cnc(Nc3ccc(N4CCN(C)CC4)cc3)nc2n1-c1cccc(C(C)(C)O)n1 + Cc1cccc(N(C)C(=O)C2C(O)CCN2c2nc(C)cc(C(F)(F)F)c2C#N)c1 to CCc1c2c(nc3ccc(O)cc13)-c1cc3c(c(=O)n1C2)COC(=O)[C@]3(O)CC + Cc1cccc(N(C)C(=O)C2C(O)CCN2c2nc(C)cc(C(F)(F)F)c2C#N)c1, the viability, T/C falls from 108% to 73%.

First: CC[C@@]1(O)C(=O)OCc2c1cc1n(c2=O)Cc2cc3c(CN(C)C)c(O)ccc3nc2-1 + Cc1cccc(N(C)C(=O)C2C(O)CCN2c2nc(C)cc(C(F)(F)F)c2C#N)c1
Second: Cn1ncnc1[C@H]1c2n[nH]c(=O)c3cc(F)cc(c23)N[C@@H]1c1ccc(F)cc1 + Cc1cccc(N(C)C(=O)C2C(O)CCN2c2nc(C)cc(C(F)(F)F)c2C#N)c1
The viability, T/C of the first is lower: 89.8% for the first, 92.3% for the second.

Same assay, conditions: second compound 0.0316 µM; first compound 0.01 µM; stronger effect = lower value

Going from C=CCn1c(=O)c2cnc(Nc3ccc(N4CCN(C)CC4)cc3)nc2n1-c1cccc(C(C)(C)O)n1 + Cc1cccc(N(C)C(=O)C2C(O)CCN2c2nc(C)cc(C(F)(F)F)c2C#N)c1 to CCc1c2c(nc3ccc(O)cc13)-c1cc3c(c(=O)n1C2)COC(=O)[C@]3(O)CC + Cc1cccc(N(C)C(=O)C2C(O)CCN2c2nc(C)cc(C(F)(F)F)c2C#N)c1, the viability, T/C falls from 88.7% to 52.8%.

Compared with CC[C@@]1(O)C(=O)OCc2c1cc1n(c2=O)Cc2cc3c(CN(C)C)c(O)ccc3nc2-1 + Cc1cccc(N(C)C(=O)C2C(O)CCN2c2nc(C)cc(C(F)(F)F)c2C#N)c1, Cn1ncnc1[C@H]1c2n[nH]c(=O)c3cc(F)cc(c23)N[C@@H]1c1ccc(F)cc1 + Cc1cccc(N(C)C(=O)C2C(O)CCN2c2nc(C)cc(C(F)(F)F)c2C#N)c1 is lower in viability, T/C: 103% for the first, 74.1% for the second.

Same assay, conditions: second compound 0.0316 µM; first compound 0.0316 µM; stronger effect = lower value

Going from C=CCn1c(=O)c2cnc(Nc3ccc(N4CCN(C)CC4)cc3)nc2n1-c1cccc(C(C)(C)O)n1 + Cc1cccc(N(C)C(=O)C2C(O)CCN2c2nc(C)cc(C(F)(F)F)c2C#N)c1 to O=C(c1cc(Cc2n[nH]c(=O)c3ccccc23)ccc1F)N1CCN(C(=O)C2CC2)CC1 + Cc1cccc(N(C)C(=O)C2C(O)CCN2c2nc(C)cc(C(F)(F)F)c2C#N)c1, the viability, T/C rises from 95.2% to 116%.

Going from CC[C@@]1(O)C(=O)OCc2c1cc1n(c2=O)Cc2cc3c(CN(C)C)c(O)ccc3nc2-1 + Cc1cccc(N(C)C(=O)C2C(O)CCN2c2nc(C)cc(C(F)(F)F)c2C#N)c1 to CCc1c2c(nc3ccc(O)cc13)-c1cc3c(c(=O)n1C2)COC(=O)[C@]3(O)CC + Cc1cccc(N(C)C(=O)C2C(O)CCN2c2nc(C)cc(C(F)(F)F)c2C#N)c1, the viability, T/C rises from 59.9% to 66.4%.

Going from CNCc1ccc(-c2[nH]c3cc(F)cc4c3c2CCNC4=O)cc1 + Cc1cccc(N(C)C(=O)C2C(O)CCN2c2nc(C)cc(C(F)(F)F)c2C#N)c1 to Cn1ncnc1[C@H]1c2n[nH]c(=O)c3cc(F)cc(c23)N[C@@H]1c1ccc(F)cc1 + Cc1cccc(N(C)C(=O)C2C(O)CCN2c2nc(C)cc(C(F)(F)F)c2C#N)c1, the viability, T/C rises from 76.6% to 91.9%.

Same assay, conditions: second compound 0.0316 µM; first compound 0.1 µM; stronger effect = lower value

Going from C=CCn1c(=O)c2cnc(Nc3ccc(N4CCN(C)CC4)cc3)nc2n1-c1cccc(C(C)(C)O)n1 + Cc1cccc(N(C)C(=O)C2C(O)CCN2c2nc(C)cc(C(F)(F)F)c2C#N)c1 to O=C(c1cc(Cc2n[nH]c(=O)c3ccccc23)ccc1F)N1CCN(C(=O)C2CC2)CC1 + Cc1cccc(N(C)C(=O)C2C(O)CCN2c2nc(C)cc(C(F)(F)F)c2C#N)c1, the viability, T/C falls from 111% to 99.2%.

Compared with CC[C@@]1(O)C(=O)OCc2c1cc1n(c2=O)Cc2cc3c(CN(C)C)c(O)ccc3nc2-1 + Cc1cccc(N(C)C(=O)C2C(O)CCN2c2nc(C)cc(C(F)(F)F)c2C#N)c1, CCc1c2c(nc3ccc(O)cc13)-c1cc3c(c(=O)n1C2)COC(=O)[C@]3(O)CC + Cc1cccc(N(C)C(=O)C2C(O)CCN2c2nc(C)cc(C(F)(F)F)c2C#N)c1 is higher in viability, T/C: 52.5% for the first, 67.3% for the second.

First: CNCc1ccc(-c2[nH]c3cc(F)cc4c3c2CCNC4=O)cc1 + Cc1cccc(N(C)C(=O)C2C(O)CCN2c2nc(C)cc(C(F)(F)F)c2C#N)c1
Second: Cn1ncnc1[C@H]1c2n[nH]c(=O)c3cc(F)cc(c23)N[C@@H]1c1ccc(F)cc1 + Cc1cccc(N(C)C(=O)C2C(O)CCN2c2nc(C)cc(C(F)(F)F)c2C#N)c1
The viability, T/C of the first is higher: 84.1% for the first, 71.8% for the second.

Same assay, conditions: second compound 0.0316 µM; first compound 0.316 µM; stronger effect = lower value

Compared with C=CCn1c(=O)c2cnc(Nc3ccc(N4CCN(C)CC4)cc3)nc2n1-c1cccc(C(C)(C)O)n1 + Cc1cccc(N(C)C(=O)C2C(O)CCN2c2nc(C)cc(C(F)(F)F)c2C#N)c1, CCc1c2c(nc3ccc(O)cc13)-c1cc3c(c(=O)n1C2)COC(=O)[C@]3(O)CC + Cc1cccc(N(C)C(=O)C2C(O)CCN2c2nc(C)cc(C(F)(F)F)c2C#N)c1 is lower in viability, T/C: 105% for the first, 54.6% for the second.

Work on CNCc1ccc(-c2[nH]c3cc(F)cc4c3c2CCNC4=O)cc1 + Cc1cccc(N(C)C(=O)C2C(O)CCN2c2nc(C)cc(C(F)(F)F)c2C#N)c1 yielded a viability, T/C of 75.3%.

From PubChem BioAssay AID1963837 (Molecular Pharmacology Branch, DTP, NCI, 2024)
